Source: PubChem BioAssay (NCI)
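All cell lines were grown in 96-well plates and treated with compound for 48 hours. TGI is the concentration that stops growth completely.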

Experiments:
Assay in all cases: inhibition of tumour cell growth, NCI panel, 48 h
SW-620 colon = tested on: SW-620 colon
SF-295 CNS = tested on: SF-295 CNS
M14 melanoma = tested on: M14 melanoma
M19-MEL melanoma = tested on: M19-MEL melanoma
KM12 colon = tested on: KM12 colon
HCT-15 colon = tested on: HCT-15 colon
UACC-257 melanoma = tested on: UACC-257 melanoma
SNB-75 CNS = tested on: SNB-75 CNS
CAKI-1 renal = tested on: CAKI-1 renal
HCT-116 colon = tested on: HCT-116 colon
NCI-H460 lung = tested on: NCI-H460 lung
NCI-H23 lung = tested on: NCI-H23 lung
KM20L2 colon = tested on: KM20L2 colon
DMS 114 small cell lung = tested on: DMS 114 small cell lung
EKVX NSCLC = tested on: EKVX NSCLC
U251 CNS = tested on: U251 CNS
UACC-62 melanoma = tested on: UACC-62 melanoma
SK-OV-3 ovarian = tested on: SK-OV-3 ovarian
SK-MEL-28 melanoma = tested on: SK-MEL-28 melanoma
IGROV1 ovarian = tested on: IGROV1 ovarian
SK-MEL-2 melanoma = tested on: SK-MEL-2 melanoma
UO-31 renal = tested on: UO-31 renal
HOP-62 NSCLC = tested on: HOP-62 NSCLC
HOP-92 NSCLC = tested on: HOP-92 NSCLC
COLO 205 colon = tested on: COLO 205 colon
OVCAR-5 ovarian = tested on: OVCAR-5 ovarian
SNB-19 CNS = tested on: SNB-19 CNS
SN12C renal = tested on: SN12C renal
LOX IMVI melanoma = tested on: LOX IMVI melanoma
NCI-H522 lung = tested on: NCI-H522 lung
HCC-2998 colon = tested on: HCC-2998 colon
OVCAR-3 ovarian = tested on: OVCAR-3 ovarian
MALME-3M melanoma = tested on: MALME-3M melanoma
K-562 leukemia = tested on: K-562 leukemia
A498 renal = tested on: A498 renal
MOLT-4 leukemia = tested on: MOLT-4 leukemia
RXF 393 renal = tested on: RXF 393 renal
TK-10 renal = tested on: TK-10 renal
LXFL 529 NSCLC = tested on: LXFL 529 NSCLC
HL-60(TB) leukemia = tested on: HL-60(TB) leukemia
NCI-H226 lung = tested on: NCI-H226 lung
CCRF-CEM leukemia = tested on: CCRF-CEM leukemia
786-0 renal = tested on: 786-0 renal
OVCAR-4 ovarian = tested on: OVCAR-4 ovarian
OVCAR-8 ovarian = tested on: OVCAR-8 ovarian
SNB-78 CNS = tested on: SNB-78 CNS
DMS 273 small cell lung = tested on: DMS 273 small cell lung
SK-MEL-5 melanoma = tested on: SK-MEL-5 melanoma
SF-268 CNS = tested on: SF-268 CNS
SR leukemia = tested on: SR leukemia
DLD-1 colon = tested on: DLD-1 colon
ACHN renal = tested on: ACHN renal
A549 NSCLC = tested on: A549 NSCLC
SF-539 CNS = tested on: SF-539 CNS
HT29 colon = tested on: HT29 colon
RPMI-8226 leukemia = tested on: RPMI-8226 leukemia
HS 578T breast = tested on: HS 578T breast
MCF7 breast = tested on: MCF7 breast
PC-3 prostate = tested on: PC-3 prostate
BT-549 breast = tested on: BT-549 breast
MDA-N = tested on: MDA-N
MDA-MB-231 breast = tested on: MDA-MB-231 breast
T-47D breast = tested on: T-47D breast
MDA-MB-435 = tested on: MDA-MB-435
DU-145 prostate = tested on: DU-145 prostate
NCI/ADR-RES ovarian = tested on: NCI/ADR-RES ovarian

Compound `CN(C)C(=O)c1ccc([N+](=O)[O-])cc1` has a TGI (SW-620 colon) of over 100 µM, a TGI (SF-295 CNS) of over 100 µM and a TGI (M14 melanoma) of over 100 µM. For the same compound, the TGI (M19-MEL melanoma) was over 100 µM, the TGI (KM12 colon) was over 100 µM and the TGI (HCT-15 colon) was over 100 µM. The TGI (UACC-257 melanoma) was over 100 µM, the TGI (SNB-75 CNS) was over 100 µM and the TGI (CAKI-1 renal) was over 100 µM. For the same compound, the TGI (HCT-116 colon) was over 100 µM, the TGI (NCI-H460 lung) was over 100 µM and the TGI (NCI-H23 lung) was over 100 µM. For the same compound, the TGI (KM20L2 colon) was over 100 µM, the TGI (DMS 114 small cell lung) was over 100 µM and the TGI (EKVX NSCLC) was over 100 µM. It also gave a TGI (U251 CNS) of over 100 µM, a TGI (UACC-62 melanoma) of over 100 µM and a TGI (SK-OV-3 ovarian) of over 100 µM. It also gave a TGI (SK-MEL-28 melanoma) of over 100 µM, a TGI (IGROV1 ovarian) of over 100 µM and a TGI (SK-MEL-2 melanoma) of over 100 µM. It also gave a TGI (UO-31 renal) of over 100 µM, a TGI (HOP-62 NSCLC) of over 100 µM and a TGI (HOP-92 NSCLC) of over 100 µM. For the same compound, the TGI (COLO 205 colon) was over 100 µM, the TGI (OVCAR-5 ovarian) was over 100 µM and the TGI (SNB-19 CNS) was over 100 µM. It also gave a TGI (SN12C renal) of over 100 µM, a TGI (LOX IMVI melanoma) of over 100 µM and a TGI (NCI-H522 lung) of over 100 µM. The TGI (HCC-2998 colon) was over 100 µM, the TGI (OVCAR-3 ovarian) was over 100 µM and the TGI (MALME-3M melanoma) was over 100 µM. The TGI (K-562 leukemia) was over 100 µM, the TGI (A498 renal) was over 100 µM and the TGI (MOLT-4 leukemia) was over 100 µM. For the same compound, the TGI (RXF 393 renal) was over 100 µM, the TGI (TK-10 renal) was over 100 µM and the TGI (LXFL 529 NSCLC) was over 100 µM. For the same compound, the TGI (HL-60(TB) leukemia) was over 100 µM, the TGI (NCI-H226 lung) was over 100 µM and the TGI (CCRF-CEM leukemia) was over 100 µM. For the same compound, the TGI (786-0 renal) was over 100 µM, the TGI (OVCAR-4 ovarian) was over 100 µM and the TGI (OVCAR-8 ovarian) was over 100 µM. The TGI (SNB-78 CNS) was over 100 µM, the TGI (DMS 273 small cell lung) was over 100 µM and the TGI (SK-MEL-5 melanoma) was over 100 µM. It also gave a TGI (SF-268 CNS) of over 100 µM, a TGI (SR leukemia) of over 100 µM and a TGI (DLD-1 colon) of over 100 µM. The TGI (ACHN renal) was over 100 µM, the TGI (A549 NSCLC) was over 100 µM and the TGI (SF-539 CNS) was over 100 µM. The TGI (HT29 colon) was over 100 µM.

Compound `O=C(O)c1nc(-c2ccc(Cl)c(Cl)c2)nc2ccc(Cl)cc12` has a TGI (SW-620 colon) of over 100 µM, a TGI (SF-295 CNS) of over 100 µM and a TGI (M19-MEL melanoma) of over 100 µM. It also gave a TGI (KM12 colon) of over 100 µM, a TGI (HCT-15 colon) of over 100 µM and a TGI (UACC-257 melanoma) of over 100 µM. It also gave a TGI (SNB-75 CNS) of 35.4 µM, a TGI (CAKI-1 renal) of over 100 µM and a TGI (HCT-116 colon) of over 100 µM. The TGI (NCI-H460 lung) was over 100 µM, the TGI (NCI-H23 lung) was over 100 µM and the TGI (KM20L2 colon) was over 100 µM. For the same compound, the TGI (EKVX NSCLC) was over 100 µM, the TGI (U251 CNS) was over 100 µM and the TGI (UACC-62 melanoma) was over 100 µM. For the same compound, the TGI (SK-OV-3 ovarian) was 43.3 µM, the TGI (SK-MEL-28 melanoma) was over 100 µM and the TGI (IGROV1 ovarian) was over 100 µM. The TGI (SK-MEL-2 melanoma) was over 100 µM, the TGI (UO-31 renal) was over 100 µM and the TGI (HOP-62 NSCLC) was over 100 µM. It also gave a TGI (RPMI-8226 leukemia) of over 100 µM, a TGI (COLO 205 colon) of over 100 µM and a TGI (OVCAR-5 ovarian) of over 100 µM. For the same compound, the TGI (SNB-19 CNS) was over 100 µM, the TGI (SN12C renal) was over 100 µM and the TGI (HCC-2998 colon) was over 100 µM. The TGI (OVCAR-3 ovarian) was over 100 µM, the TGI (MALME-3M melanoma) was over 100 µM and the TGI (K-562 leukemia) was over 10 µM. For the same compound, the TGI (A498 renal) was over 100 µM, the TGI (MOLT-4 leukemia) was over 100 µM and the TGI (RXF 393 renal) was 69.4 µM. The TGI (TK-10 renal) was over 100 µM, the TGI (LXFL 529 NSCLC) was over 100 µM and the TGI (HL-60(TB) leukemia) was 54.2 µM. The TGI (CCRF-CEM leukemia) was over 10 µM, the TGI (786-0 renal) was over 100 µM and the TGI (OVCAR-8 ovarian) was over 100 µM. The TGI (SNB-78 CNS) was 77.6 µM, the TGI (DMS 273 small cell lung) was over 100 µM and the TGI (SK-MEL-5 melanoma) was over 100 µM. The TGI (SF-268 CNS) was over 100 µM, the TGI (SR leukemia) was over 100 µM and the TGI (DLD-1 colon) was over 100 µM. The TGI (ACHN renal) was over 100 µM, the TGI (A549 NSCLC) was over 100 µM and the TGI (SF-539 CNS) was over 100 µM. It also gave a TGI (HT29 colon) of over 100 µM.

Work on `CC1=C(C(=O)N[C@@H](CC(C)C)C(=O)O)N2C(=O)[C@@H](NC(=O)C(N)c3ccccc3)[C@H]2SC1` (some centres not stated) yielded a TGI (SW-620 colon) of over 100 µM, a TGI (SF-295 CNS) of over 100 µM and a TGI (M14 melanoma) of over 100 µM. The TGI (KM12 colon) was over 100 µM, the TGI (HCT-15 colon) was over 100 µM and the TGI (UACC-257 melanoma) was over 100 µM. For the same compound, the TGI (SNB-75 CNS) was over 100 µM, the TGI (CAKI-1 renal) was over 100 µM and the TGI (NCI-H460 lung) was over 100 µM. It also gave a TGI (EKVX NSCLC) of over 100 µM, a TGI (U251 CNS) of over 100 µM and a TGI (UACC-62 melanoma) of over 100 µM. The TGI (SK-MEL-28 melanoma) was over 100 µM, the TGI (IGROV1 ovarian) was over 100 µM and the TGI (SK-MEL-2 melanoma) was over 100 µM. For the same compound, the TGI (HS 578T breast) was over 100 µM, the TGI (HOP-92 NSCLC) was over 100 µM and the TGI (MCF7 breast) was over 100 µM. The TGI (RPMI-8226 leukemia) was over 100 µM, the TGI (COLO 205 colon) was over 100 µM and the TGI (OVCAR-5 ovarian) was over 100 µM. For the same compound, the TGI (SNB-19 CNS) was over 100 µM, the TGI (SN12C renal) was over 100 µM and the TGI (LOX IMVI melanoma) was over 100 µM. The TGI (NCI-H522 lung) was over 100 µM, the TGI (HCC-2998 colon) was over 100 µM and the TGI (OVCAR-3 ovarian) was over 100 µM. It also gave a TGI (PC-3 prostate) of over 100 µM, a TGI (MALME-3M melanoma) of over 100 µM and a TGI (BT-549 breast) of over 100 µM. It also gave a TGI (K-562 leukemia) of over 100 µM, a TGI (A498 renal) of over 100 µM and a TGI (MOLT-4 leukemia) of over 100 µM. The TGI (RXF 393 renal) was over 100 µM, the TGI (TK-10 renal) was over 100 µM and the TGI (HL-60(TB) leukemia) was over 100 µM. For the same compound, the TGI (NCI-H226 lung) was over 100 µM, the TGI (MDA-N) was over 100 µM and the TGI (CCRF-CEM leukemia) was over 100 µM. For the same compound, the TGI (MDA-MB-231 breast) was over 100 µM, the TGI (786-0 renal) was over 100 µM and the TGI (OVCAR-4 ovarian) was over 100 µM. The TGI (T-47D breast) was over 100 µM, the TGI (OVCAR-8 ovarian) was over 100 µM and the TGI (MDA-MB-435) was over 100 µM. It also gave a TGI (SK-MEL-5 melanoma) of over 100 µM, a TGI (SF-268 CNS) of over 100 µM and a TGI (SR leukemia) of over 100 µM. It also gave a TGI (ACHN renal) of over 100 µM, a TGI (A549 NSCLC) of over 100 µM and a TGI (SF-539 CNS) of over 100 µM. The TGI (DU-145 prostate) was over 100 µM and the TGI (NCI/ADR-RES ovarian) was over 100 µM.
